Measurements as given in US11753407B2, “Compounds for treating spinal muscular atrophy” (PTC Therapeutics, Inc., priority 2012, dated 2023).

How the values were obtained:
[1] = tested on: SMN2 minigene mRNA (SMN2-A minigene) in HEK293H cells; assay: SMN2 minigene mRNA splicing RT-qPCR assay in cultured cells; assay type: cell-based, human; conditions: Homo sapiens, HEK293-H; concentration increasing full length SMN2 mRNA 1.5-fold relative to vehicle-treated cells; HEK293H cells with SMN2-A minigene, 24 hours, 7-point concentration data; read-out: EC1.5x for production of full length SMN2 mRNA
In short: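 EC1.5× = concentration raising full-length SMN2 minigene mRNA 1.5-fold over vehicle, from 7-point curves in duplicate. Stably transfected HEK293H cells exposed 24 h at 37 °C; lysates assayed by multiplex RT-qPCR, minigene FL signal normalized to GAPDH via modified ΔΔCt.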

[2] = tested on: Smn protein in SMA patient fibroblast cells (GM03813); assay: Smn protein assay in cultured cells (SMN HTRF); assay type: cell-based, human; conditions: SMA patient fibroblast cells, 48 hours; for EC1.5x for Smn protein expression: 7-point concentration curve, SMN HTRF, concentration producing 1.5 times Smn protein vs DMSO vehicle control; for maximum fold (Fold) increase of Smn protein: 7-point concentration data, fold relative to vehicle control
In short: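 Smn protein quantified by HTRF with anti-SMN d2/kryptate pair, 665/620 nm ratio blank-corrected, in RIPA lysates of GM03813 fibroblasts after 48 h compound exposure (7 concentrations, 3.16-fold steps, triplicates). Values: concentration producing 1.5× vehicle Smn level, and maximal fold increase.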

| SMILES | melting point | EC (1.5-fold increase) [1] | EC1.5x for Smn protein expression [2] | maximum fold (Fold) increase of Smn protein [2] |
| --- | --- | --- | --- | --- |
| CN1CCC(c2ccc3nc(-c4ccc5nn(C)cc5c4)cc(=O)n3n2)CC1 [Compound 522, 2-(2-methyl-2H-indazol-5-yl)-7-(1-methylpiperidin-4-yl)-4H-pyrimido[1,2-b]pyridazin-4-one] | 260 to 262 °C | < 0.1 µM | *** (an EC1.5× between >0.3 μM and ≤1 μM is indicated by three stars (***)) | ***** (a fold increase >1.65 is indicated by five stars (*****)) |
| CCN1CCC(c2ccc3nc(-c4ccc5nn(C)cc5c4)cc(=O)n3n2)CC1 [Compound 523, 7-(1-ethylpiperidin-4-yl)-2-(2-methyl-2H-indazol-5-yl)-4H-pyrimido[1,2-b]pyridazin-4-one] | 253 to 255 °C | < 0.1 µM | **** (an EC1.5x≤0.3 μM is indicated by four stars (****)) | ***** (a fold increase >1.65 is indicated by five stars (*****)) |
| Cc1cn2cc(-c3cc(=O)n4nc(C5CCN(C)CC5)ccc4n3)cc(Cl)c2n1 [Compound 524, 2-(8-chloro-2-methylimidazo[1,2-a]pyridin-6-yl)-7-(1-methylpiperidin-4-yl)-4H-pyrimido[1,2-b]pyridazin-4-one] | 289 to 291 °C | 0.1 to 0.3 µM | *** (an EC1.5× between >0.3 μM and ≤1 μM is indicated by three stars (***)) | ***** (a fold increase >1.65 is indicated by five stars (*****)) |
| CCN1CCC(c2ccc3nc(-c4cc(Cl)c5nc(C)cn5c4)cc(=O)n3n2)CC1 [Compound 525, 2-(8-chloro-2-methylimidazo[1,2-a]pyridin-6-yl)-7-(1-ethylpiperidin-4-yl)-4H-pyrimido[1,2-b]pyridazin-4-one] | 284 to 286 °C | 0.1 to 0.3 µM | *** (an EC1.5× between >0.3 μM and ≤1 μM is indicated by three stars (***)) | ***** (a fold increase >1.65 is indicated by five stars (*****)) |
| Cc1cn2cc(-c3cc(=O)n4nc(C5CCN(CCO)CC5)ccc4n3)cc(Cl)c2n1 [Compound 526, 2-(8-chloro-2-methylimidazo[1,2-a]pyridin-6-yl)-7-[1-(2-hydroxyethyl)piperidin-4-yl]-4H-pyrimido[1,2-b]pyridazin-4-one] | 255 to 257 °C | 0.3 to 1 µM | ** (an EC1.5× between >1 μM and ≤3 μM is indicated by two stars (**)) | ***** (a fold increase >1.65 is indicated by five stars (*****)) |
| COCCN1CCN(c2ccc3nc(-c4cc(Cl)c5nc(C)cn5c4)cc(=O)n3c2)C[C@@H]1C [Compound 533, 2-(8-chloro-2-methylimidazo[1,2-a]pyridin-6-yl)-7-[(3S)-4-(2-methoxyethyl)-3-methylpiperazin-1-yl]-4H-pyrido[1,2-a]pyrimidin-4-one] | 179 to 183 °C | < 0.1 µM | *** (an EC1.5× between >0.3 μM and ≤1 μM is indicated by three stars (***)) | ***** (a fold increase >1.65 is indicated by five stars (*****)) |
| Cc1cn2cc(-c3cc(=O)n4cc(N5CCN(CCOCCO)[C@@H](C)C5)ccc4n3)cc(Cl)c2n1 [Compound 534, 2-(8-chloro-2-methylimidazo[1,2-a]pyridin-6-yl)-7-{(3S)-4-[2-(2-hydroxyethoxy)ethyl]-3-methylpiperazin-1-yl}-4H-pyrido[1,2-a]pyrimidin-4-one] | 201 to 205 °C | < 0.1 µM | **** (an EC1.5x≤0.3 μM is indicated by four stars (****)) | ***** (a fold increase >1.65 is indicated by five stars (*****)) |

Second part, led by results:

| melting point | SMILES | EC (1.5-fold increase) [1] | EC1.5x for Smn protein expression [2] | maximum fold (Fold) increase of Smn protein [2] |
| --- | --- | --- | --- | --- |
| 240 to 246 °C | CCN1CCC(c2ccc3nc(-c4cc(Cl)c5nc(C)cn5c4)cc(=O)n3c2)CC1 [Compound 518, 2-(8-chloro-2-methylimidazo[1,2-a]pyridin-6-yl)-7-(1-ethylpiperidin-4-yl)-4H-pyrido[1,2-a]pyrimidin-4-one] | < 0.1 µM | **** (an EC1.5x≤0.3 μM is indicated by four stars (****)) | **** (a fold increase between >1.5 and ≤1.65 is indicated by four stars (****)) |
| 279 to 285 °C | Cc1cn2cc(-c3cc(=O)n4cc(C5CCN(C(C)C)CC5)ccc4n3)cc(Cl)c2n1 [Compound 519, 2-(8-chloro-2-methylimidazo[1,2-a]pyridin-6-yl)-7-[1-(propan-2-yl)piperidin-4-yl]-4H-pyrido[1,2-a]pyrimidin-4-one] | < 0.1 µM | **** (an EC1.5x≤0.3 μM is indicated by four stars (****)) | ***** (a fold increase >1.65 is indicated by five stars (*****)) |
| 260 to 262 °C | Cc1cc2cc(-c3cc(=O)n4cc(N5C[C@@H](C)N[C@@H](C)C5)ccc4n3)oc2c(C)n1 [Compound 527, 2-(5,7-dimethylfuro[2,3-c]pyridin-2-yl)-7-[(3R,5S)-3,5-dimethylpiperazin-1-yl]-4H-pyrido[1,2-a]pyrimidin-4-one] | < 0.1 µM | **** (an EC1.5x≤0.3 μM is indicated by four stars (****)) | ***** (a fold increase >1.65 is indicated by five stars (*****)) |
| 200 to 202 °C | Cc1cc2cc(-c3cc(=O)n4cc(N5CCC(N(C)C)CC5)ccc4n3)oc2c(C)n1 [Compound 528, 7-[4-(dimethylamino)piperidin-1-yl]-2-(5,7-dimethylfuro[2,3-c]pyridin-2-yl)-4H-pyrido[1,2-a]pyrimidin-4-one] | < 0.1 µM | **** (an EC1.5x≤0.3 μM is indicated by four stars (****)) | **** (a fold increase between >1.5 and ≤1.65 is indicated by four stars (****)) |
| 256 to 258 °C | Cc1cc2cc(-c3cc(=O)n4cc(N5CCN(CCO)CC5)ccc4n3)oc2c(C)n1 [Compound 529, 2-(5,7-dimethylfuro[2,3-c]pyridin-2-yl)-7-[4-(2-hydroxyethyl)piperazin-1-yl]-4H-pyrido[1,2-a]pyrimidin-4-one] | < 0.1 µM | *** (an EC1.5× between >0.3 μM and ≤1 μM is indicated by three stars (***)) | ***** (a fold increase >1.65 is indicated by five stars (*****)) |
| 228 to 230 °C | Cc1cn2nc(-c3cc(=O)n4cc(C5CCN(CCO)CC5)ccc4n3)cc2c(C)n1 [Compound 530, 2-(4,6-dimethylpyrazolo[1,5-a]pyrazin-2-yl)-7-[1-(2-hydroxyethyl)piperidin-4-yl]-4H-pyrido[1,2-a]pyrimidin-4-one] | < 0.1 µM | **** (an EC1.5x≤0.3 μM is indicated by four stars (****)) | ***** (a fold increase >1.65 is indicated by five stars (*****)) |
| 246 to 248 °C | Cc1cn2nc(-c3cc(=O)n4cc(N5CCN(CCO)CC5)ccc4n3)cc2c(C)n1 [Compound 531, 2-(4,6-dimethylpyrazolo[1,5-a]pyrazin-2-yl)-7-[4-(2-hydroxyethyl)piperazin-1-yl]-4H-pyrido[1,2-a]pyrimidin-4-one] | 0.1 to 0.3 µM | *** (an EC1.5× between >0.3 μM and ≤1 μM is indicated by three stars (***)) | ***** (a fold increase >1.65 is indicated by five stars (*****)) |
| 238 to 240 °C | Cc1cn2nc(-c3cc(=O)n4cc(N5CCN(CCO)[C@H](C)C5)ccc4n3)cc2c(C)n1 [Compound 532, 2-(4,6-dimethylpyrazolo[1,5-a]pyrazin-2-yl)-7-[(3R)-4-(2-hydroxyethyl)-3-methylpiperazin-1-yl]-4H-pyrido[1,2-a]pyrimidin-4-one] | < 0.1 µM | **** (an EC1.5x≤0.3 μM is indicated by four stars (****)) | ***** (a fold increase >1.65 is indicated by five stars (*****)) |
| 253 to 257 °C | Cc1cn2cc(-c3cc(=O)n4cc(N5CCN(C6CC6)[C@@H](C)C5)ccc4n3)cc(Cl)c2n1 [Compound 535, 2-(8-chloro-2-methylimidazo[1,2-a]pyridin-6-yl)-7-[(3S)-4-cyclopropyl-3-methylpiperazin-1-yl]-4H-pyrido[1,2-a]pyrimidin-4-one] | < 0.1 µM | *** (an EC1.5× between >0.3 μM and ≤1 μM is indicated by three stars (***)) | ***** (a fold increase >1.65 is indicated by five stars (*****)) |
| 228 to 232 °C | Cc1cn2cc(-c3cc(=O)n4cc(N5CCN(C6CCC6)[C@@H](C)C5)ccc4n3)cc(Cl)c2n1 [Compound 536, 2-(8-chloro-2-methylimidazo[1,2-a]pyridin-6-yl)-7-[(3S)-4-cyclobutyl-3-methylpiperazin-1-yl]-4H-pyrido[1,2-a]pyrimidin-4-one] | < 0.1 µM | **** (an EC1.5x≤0.3 μM is indicated by four stars (****)) | **** (a fold increase between >1.5 and ≤1.65 is indicated by four stars (****)) |
